Experimental data: the NIST ThermoML archive (doi:10.1016/j.jct.2013.12.009)

Legend:
[1] = for speed of sound / kinematic viscosity / mass density: 101.33 kPa, Liquid; for speed of sound: Sing-around technique in a fixed-path interferometer; for surface tension liquid-gas: Pendant drop shape; for kinematic viscosity: Capillary tube (Ostwald / Ubbelohde) method; for mass density: Vibrating tube method
[2] = xn = mol fraction of the nth substance listed; settings: for surface tension liquid-gas: Pendant drop shape; for viscosity / mass density: 101 kPa, Liquid; for viscosity: Concentric cylinders viscometry; for mass density: Vibrating tube method

CCCC[N+]1(C)CCCC1.O=S(=O)([N-]S(=O)(=O)C(F)(F)F)C(F)(F)F
[1]
Settings	kinematic viscosity [m2/s]	mass density [kg/m3]	speed of sound [m/s]	surface tension liquid-gas [mN/m]
288.02 K	–	–	1293.9	–
288.15 K	8.9e-05	1403.37	–	33.71
293.01 K	–	–	1281.8	–
293.15 K	6.96e-05	1398.92	–	33.44
298.01 K	–	–	1270	–
298.15 K	5.57e-05	1394.49	–	33.22
303.15 K	4.52e-05	1390.09	–	33.02
303.2 K	–	–	1258	–
308.14 K	–	–	1246.8	–
308.15 K	3.69e-05	1385.66	–	32.82
313.15 K	3.06e-05	1381.29	1235.7	32.6
318.12 K	–	–	1224.7	–
318.15 K	2.55e-05	1376.92	–	32.35
323.13 K	–	–	1213.8	–
323.15 K	2.15e-05	1372.54	–	32.15

CCC[N+]1(C)CCCC1.O=S(=O)([N-]S(=O)(=O)C(F)(F)F)C(F)(F)F
[1]
Settings	kinematic viscosity [m2/s]	mass density [kg/m3]	speed of sound [m/s]	surface tension liquid-gas [mN/m]
288.01 K	–	–	1294.4	–
288.15 K	6.82e-05	1436.86	–	35.04
293.01 K	–	–	1282.8	–
293.15 K	5.33e-05	1432.36	–	34.87
297.99 K	–	–	1271.3	–
298.15 K	4.26e-05	1427.83	–	34.61
303.15 K	3.48e-05	1423.32	–	34.37
303.24 K	–	–	1259.5	–
308.15 K	2.88e-05	1418.81	–	34.14
308.21 K	–	–	1248.6	–
313.15 K	2.42e-05	1414.3	–	33.94
313.2 K	–	–	1237.6	–
318.15 K	2.06e-05	1409.86	–	33.72
318.16 K	–	–	1226.9	–
323.15 K	1.76e-05	1405.41	–	33.48
323.21 K	–	–	1216.2	–

CCCC[N+]1(C)CCCC1.O=S(=O)([N-]S(=O)(=O)C(F)(F)F)C(F)(F)F + CC#N
[2]
Settings	mass density, 288.15 K [kg/m3]	mass density, 298.15 K [kg/m3]	mass density, 308.15 K [kg/m3]	surface tension liquid-gas, 288.15 K [mN/m]	surface tension liquid-gas, 298.15 K [mN/m]	surface tension liquid-gas, 308.15 K [mN/m]	viscosity, 288.15 K [mPa·s]	viscosity, 298.15 K [mPa·s]	viscosity, 308.15 K [mPa·s]
x1 = 0.053	941.8	931.2	920.5	30.92	29.78	28.55	–	–	–
x1 = 0.1924	–	–	–	–	–	–	2.41	2.02	1.73
x1 = 0.1989	1156.4	1146.2	1136.2	32.45	31.45	30.57	–	–	–
x1 = 0.3593	1263.1	1253.5	1243.9	33.18	32.48	31.76	–	–	–
x1 = 0.4602	–	–	–	–	–	–	13.16	9.79	7.56
x1 = 0.5201	1322.1	1312.7	1303.4	33.45	32.84	32.2	–	–	–
x1 = 0.598	–	–	–	–	–	–	26.33	18.47	13.58
x1 = 0.6103	1344.7	1335.5	1326.4	33.51	32.97	32.44	–	–	–
x1 = 0.788	1377.3	1368.3	1359.2	33.58	33.13	32.68	–	–	–
x1 = 0.8159	–	–	–	–	–	–	65.88	42.55	29.18
x1 = 0.9394	1396.6	1387.8	1379	33.71	33.2	32.72	–	–	–
x1 = 1	1403.4	1394.5	1385.7	33.71	33.22	32.82	–	–	–
